Experiment: xn = mol fraction of the nth substance listed

CC(C)OC(C)C + CC(C)O
viscosity [mPa·s], 100 kPa
Details	x1 = 0.0797	x1 = 0.1607	x1 = 0.2387	x1 = 0.3497	x1 = 0.4359	x1 = 0.5553	x1 = 0.6498	x1 = 0.7351	x1 = 0.848	x1 = 0.9369
293.15 K	1.78	1.32	1.02	0.755	0.635	0.52	0.458	0.418	0.38	0.35
298.15 K	1.55	1.18	0.92	0.68	0.572	0.48	0.43	0.395	0.36	0.332
303.15 K	1.39	1.05	0.84	0.63	0.53	0.45	0.404	0.375	0.344	0.318
308.15 K	1.21	0.94	0.75	0.56	0.48	0.417	0.379	0.356	0.328	0.305
313.15 K	1.05	0.83	0.67	0.51	0.44	0.383	0.356	0.334	0.311	0.29
318.15 K	0.93	0.74	0.6	0.465	0.4	0.354	0.331	0.313	0.293	0.276
323.15 K	0.82	0.647	0.522	0.41	0.361	0.327	0.309	0.295	0.276	0.26

CC(=O)c1ccccc1 + CCCC(C)O
298.15 K, 101 kPa
Details	viscosity [mPa·s]
x1 = 0.2502	1.875
x1 = 0.7547	1.605

CCCCCCCC/C=C\CCCCCCCC(=O)OCC(COC(=O)CCCCCCC/C=C\CCCCCCCC)OC(=O)CCCCCCC/C=C\CCCCCCCC + ClC(Cl)Cl
viscosity [mPa·s], 101.33 kPa
Details	x1 = 0.000728	x1 = 0.000907	x1 = 0.00244	x1 = 0.004913	x1 = 0.007824	x1 = 0.01322	x1 = 0.01672	x1 = 0.03078
293.15 K	0.5839	0.5875	0.6352	0.695	0.8133	1.032	1.109	1.733
298.15 K	0.5545	0.5581	0.603	0.6576	0.7684	0.9701	1.042	1.585
303.15 K	0.5275	0.5306	0.5725	0.6237	0.727	0.9137	0.9804	1.474

CCCOCC(C)O (stereo not given) + CCCNCCC
viscosity [mPa·s], 100 kPa
Details	298.15 K	303.15 K	308.15 K
x1 = 0.0501	0.5507	0.5133	0.4872
x1 = 0.1003	0.6065	0.556	0.5257
x1 = 0.1502	0.6545	0.6056	0.571
x1 = 0.1999	0.7308	0.6597	0.6196
x1 = 0.3	0.8816	0.7957	0.7427
x1 = 0.4	1.089	0.969	0.894
x1 = 0.4999	1.294	1.144	1.052
x1 = 0.6	1.558	1.351	1.228
x1 = 0.6999	1.823	1.571	1.415
x1 = 0.7997	2.079	1.784	1.603
x1 = 0.8999	2.275	1.945	1.748
x1 = 0.9498	2.357	2.016	1.815

O=S(Cl)Cl + Cc1ccccc1
298.15 K, 101 kPa
Details	viscosity [mPa·s]
x1 = 0.261	0.5832
x1 = 0.426	0.6019
x1 = 0.559	0.6139
x1 = 0.72	0.6223
x1 = 0.802	0.625
x1 = 0.923	0.6236

NC(=O)c1ccccc1O + O
viscosity [mPa·s], 100 kPa
Details	x1 = 7.39e-05	x1 = 0.000108	x1 = 0.000143	x1 = 0.00018	x1 = 0.0002156	x1 = 0.0002516
293.15 K	1.008	1.011	1.013	1.015	1.016	1.017
298.15 K	0.896	0.899	0.901	0.902	0.903	0.904
303.15 K	0.803	0.805	0.807	0.808	0.81	0.811
308.15 K	0.725	0.727	0.728	0.73	0.731	0.732
313.15 K	0.659	0.661	0.662	0.663	0.664	0.665

O=S(Cl)Cl + CCOC(C)=O
298.15 K, 101 kPa
Details	viscosity [mPa·s]
x1 = 0.225	0.4911
x1 = 0.316	0.5174
x1 = 0.534	0.5759
x1 = 0.7	0.6117
x1 = 0.83	0.6177

CCC(O)CC + Cc1ccccc1
viscosity [mPa·s], 101 kPa
Details	x1 = 0.1	x1 = 0.1999	x1 = 0.2999	x1 = 0.4	x1 = 0.4999	x1 = 0.6	x1 = 0.6999	x1 = 0.8	x1 = 0.9001
303.15 K	0.5369	0.57	0.6172	0.6865	0.7794	0.9264	1.142	1.52	2.12
308.15 K	0.5072	0.5352	0.5765	0.6364	0.7145	0.8369	1.015	1.313	1.767
313.15 K	0.4793	0.5027	0.5395	0.5918	0.658	0.7604	0.9062	1.147	1.493
318.15 K	0.4555	0.4739	0.5062	0.5515	0.6092	0.6951	0.8461	1.013	1.285
323.15 K	0.433	0.4499	0.4765	0.5154	0.5649	0.6384	0.7404	0.9004	1.112

CC(=O)c1ccccc1 + c1ccccc1
298.15 K, 101 kPa
Details	viscosity [mPa·s]
x1 = 0.5	0.942
x1 = 0.75	1.27

Source: the CheMixHub viscosity set
